Assay results from US12637464B2, “Tetracyclic compounds for treating brain disorders” (The Regents of the University of California, priority 2021, dated 2026).

Experiments:
[1] = tested on: Sprague Dawley rats; assay: Rat forced swim test (FST); type: in vivo; conditions: FST 24 h after compound administration; ketamine as comparator
Method: Rat Forced Swim Test (FST). This study was performed by Psychogenics (Paramus, NJ). Male Sprague Dawley rats were purchased from Envigo (Indianapolis, IN), and upon receipt, they were assigned unique identification numbers (tail marked) and group housed in ventilated cages with 3 rats per cage. All animals remained housed in groups of three for the remainder of the study. All rats were acclimated to the colony room for up to one week prior to dosing. During the period of acclimation, rats were examined and handled daily, and weighed to assure adequate health and suitability. The room temperature was maintained between 20° C. and 23° C. with a relative humidity of 30%-70%. Lab Rodent Diet 5001 (W.F. Fisher, Cat #11015) and water were provided ad libitum. […] All animals were carefully monitored to ensure their safety in the swim test and any animal unable to maintain a posture with its nose above water was immediately removed from the water and not used further in the study. […] This test lasted for 5 min and was video recorded. A blinded experimenter manually scored the videos for swimming, climbing, and immobility behavior. Scoring of the forced swim test was performed by trained technicians using a time sampling technique in which the animal in the video recorded test was viewed every 5 seconds and the behavior observed was noted (e.g., immobile, swimming, or climbing). […]

[2] = tested on: C57BL/6J mice; assay: 4-odor discrimination and reversal; type: in vivo, mouse; conditions: 1 mg/kg IP
Method: 4-Odor Discrimination and Reversal. A 4-odor discrimination and reversal behavioral assay was performed as described previously with slight modifications. Food restriction was begun five days before the discrimination and reversal tests to reduce animals' body weight to ˜80% of their starting weight. A total of 31 C57BL/6J mice 2-3 months of age were used in this assay. Eleven mice (5 males, 6 females) served as VEH/unstressed controls, 10 animals (4 males, 6 females) as a VEH/stress group, and 10 animals (4 males, 6 females) as a treatment/stress group. Both the VEH/stress and […] groups were subjected to a 7-day unpredictable mild stress protocol using previously validated stressors. Two stressors were delivered during the day, with additional overnight stressors on 4 of the days. […]

CCN(CC)C(=O)[C@@H]1C=C2c3cccc4ccn(c34)C[C@H]2N(C)C1 [(+)-JRT]
antidepressant-like effects in rat FST [1]: antidepressant-like effects comparable to ketamine at substantially lower doses | stimulus discrimination ([2]; 4-odor discrimination phase, stressed mice): does not impact stimulus discrimination | cognitive deficits induced by unpredictable mild stress (reversal) ([2]; reversal phase, after 7-day unpredictable mild stress): rescues cognitive deficits induced by unpredictable mild stress
